Structures can show the parent of a compound that is named as a salt.

In the experiment the target is T1, TAK1-TAB1 fusion protein (Homo sapiens, UniProt O43318).
T1 construct: purchased Carna
T1 sequence (O43318 with tags, fused parts or gaps limits assumed): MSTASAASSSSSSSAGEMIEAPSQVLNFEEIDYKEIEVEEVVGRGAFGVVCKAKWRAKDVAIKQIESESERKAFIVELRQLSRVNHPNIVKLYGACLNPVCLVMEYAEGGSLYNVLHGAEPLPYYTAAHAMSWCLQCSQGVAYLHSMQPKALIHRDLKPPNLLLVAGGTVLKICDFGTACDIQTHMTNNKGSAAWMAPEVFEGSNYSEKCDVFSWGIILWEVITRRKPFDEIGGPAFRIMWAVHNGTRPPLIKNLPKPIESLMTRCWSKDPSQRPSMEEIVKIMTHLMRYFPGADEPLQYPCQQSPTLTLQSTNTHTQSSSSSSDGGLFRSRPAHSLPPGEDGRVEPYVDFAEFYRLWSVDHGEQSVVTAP
The experiment can be described thus: TAK1 biochemical assay (AlphaScreen, GST-MAP2K7 substrate). To be noted: TAK1-TAB1 fusion protein, GST-MAP2K7 substrate; read-out: mean TAK1 IC50 (Col. A). (In general: In Alpha technology, singlet oxygen from a donor bead excites a nearby acceptor bead.)
For the compound `CC(C)(C)OC(=O)N1CCC(n2cc(-c3cnc(N)c4oc(-c5cccc6ccsc56)cc34)cn2)CC1` [Example 17A], the half-inhibitory concentration (IC50) (in general, the concentration at which inhibition is half-maximal) was above 10000 nM.
As to `Cc1c(-c2ccccc2)oc2c(N)ncc(-c3cnn(C4CCNCC4)c3)c12` [Example 9, methyl-2-phenyl-4-[1-(piperidin-4-yl)-1H-pyrazol-4-yl]furo[2,3-c]pyridin-7-amine hydrochloride], the half-inhibitory concentration (IC50) lay in the range of 1000 to 10000 nM.
Turning to `Nc1ncc(-c2cnn([C@H]3CC[C@H](O)CC3)c2)c2cc(-c3ccc4c(c3)CC(=O)N4)oc12` [Example 405, 5-{7-amino-4-[1-(trans-4-hydroxycyclohexyl)-1H-pyrazol-4-yl]furo[2,3-c]pyridin-2-yl}-1,3-dihydro-2H-indol-2-one], the IC50 lay in the range of 1000 to 10000 nM.
On to `COC(=O)c1cc2cccc(-c3cc4c(-c5cnn(C6CCNCC6)c5)cnc(N)c4o3)c2s1` [Example 48, methyl 7-{7-amino-4-[1-(piperidin-4-yl)-1H-pyrazol-4-yl]furo[2,3-c]pyridine-2-yl}-1-benzothiophene-2-carboxylate], for which the half-maximal inhibitory concentration (IC50) is 100 to 1000 nM.
For `Nc1ncc(-c2cnn(C3CC=CC3)c2)c2cc(-c3cccc4cnccc34)oc12` [Example 72, 4-[1-(cyclopent-3-en-1-yl)-1H-pyrazol-4-yl]-2-(isoquinolin-5-yl)furo[2,3-c]pyridin-7-amine], the IC50 lay in the range of 100 to 1000 nM.
The value for `COc1cc2c(-c3cc4c(-c5cnn([C@H]6CC[C@H](O)CC6)c5)cnc(N)c4o3)csc2cn1` [Example 250, trans-4-{4-[7-amino-2-(5-methoxythieno[2,3-c]pyridin-3-yl)furo[2,3-c]pyridin-4-yl]-1H-pyrazol-1-yl}cyclohexanol bis(trifluoroacetate)] was 1000 to 10000 nM; that for `CC(=O)Nc1ccc(-c2cc3c(-c4cnn(C5CCN(C(C)=O)CC5)c4)cnc(N)c3o2)cn1` [Example 126, N-(5-{4-[1-(1-acetylpiperidin-4-yl)-1H-pyrazol-4-yl]-7-aminofuro[2,3-c]pyridin-2-yl}pyridin-2-yl)acetamide] was 1000 to 10000 nM; that for `CC(=O)N1CCC(n2cc(-c3cnc(N)c4oc(-c5csc6c(=O)[nH]ccc56)cc34)cn2)CC1` [Example 257, 3-{4-[1-(1-acetylpiperidin-4-yl)-1H-pyrazol-4-yl]-7-aminofuro[2,3-c]pyridin-2-yl}thieno[2,3-c]pyridin-7(6H)-one trifluoroacetic Acid Salt] was 1000 to 10000 nM.
`Nc1ncc(-c2cnn([C@H]3CC[C@H](O)CC3)c2)c2cc(-c3cccc4ccsc34)oc12` [Example 232, trans-4-{4-[7-amino-2-(1-benzothiophen-7-yl)furo[2,3-c]pyridin-4-yl]-1H-pyrazol-1-yl}cyclohexanol diformate salt]: the half-maximal inhibitory concentration (IC50) was 100 to 1000 nM.
`Nc1ncc(-c2cnn(C3CCNCC3)c2)c2c(Cl)c(-c3ccc4[nH]ncc4c3)oc12` [Example 399, 3-chloro-2-(1H-indazol-5-yl)-4-[1-(piperidin-4-yl)-1H-pyrazol-4-yl]furo[2,3-c]pyridin-7-amine hydrochloride]: the IC50 is 1000 to 10000 nM.
Turning to `CS(=O)(=O)Nc1cccc(-c2cc3c(-c4cnn(C5CCNCC5)c4)cnc(N)c3o2)c1` [Example 23, N-(3-{7-amino-4-[1-(piperidin-4-yl)-1H-pyrazol-4-yl]furo[2,3-c]pyridine-2-yl}phenyl)methanesulfonamide], the IC50 was 1000 to 10000 nM.
Take `CC(=O)N1CCC(n2cc(-c3cnc(N)c4oc(-c5c(-c6ccccc6)sc6cnccc56)cc34)cn2)CC1` [Example 263, 1-(4-{4-[7-amino-2-(2-phenylthieno[2,3-c]pyridin-3-yl)furo[2,3-c]pyridin-4-yl]-1H-pyrazol-1-yl}piperidin-1-yl)ethanone trifluoroacetate]: the IC50 was 100 to 1000 nM.
The value for `CSc1nc2cccc(-c3cc4c(-c5cnn(C6CCN(C(C)=O)CC6)c5)cnc(N)c4o3)c2s1` [Example 352, 1-[4-(4-{7-amino-2-[2-(methylsulfanyl)-1,3-benzothiazol-7-yl]furo[2,3-c]pyridin-4-yl}-1H-pyrazol-1-yl)piperidin-1-yl]ethanone trifluoroacetate] was 1000 to 10000 nM.
Take `CSc1nc2cccc(-c3cc4c(-c5cnn([C@H]6CC[C@H](O)CC6)c5)cnc(N)c4o3)c2s1` [Example 353, trans-4-(4-{7-amino-2-[2-(methylsulfanyl)-1,3-benzothiazol-7-yl]furo[2,3-c]pyridin-4-yl}-1H-pyrazol-1-yl)cyclohexanol Trifluoroacetate (Salt)]: the IC50 lay within 1000 to 10000 nM.
The value for `COC(=O)c1cc(-c2cnc(N)c3oc(-c4csc5cnccc45)cc23)cs1` [Example 378, 4-(7-amino-2-thieno[2,3-c]pyridin-3-yl-furo[2,3-c]pyridin-4-yl)-thiophene-2-carboxylic acid methyl ester] was above 10000 nM.
Regarding `CC(=O)N1CCC(n2cc(-c3cnc(N)c4oc(-c5cccc(OCc6cccnc6)c5)cc34)cn2)CC1` [Example 202, 1-[4-(4-{7-amino-2-[3-(pyridin-3-ylmethoxy)phenyl]furo[2,3-c]pyridin-4-yl}-1H-pyrazol-1-yl)piperidin-1-yl]ethanone], the IC50 is 1000 to 10000 nM.
The value for `CCOC(=O)Cn1cc(-c2cnc(N)c3oc(-c4cccc5cnccc45)cc23)cn1` [Example 59, ethyl {4-[7-amino-2-(isoquinolin-5-yl)furo[2,3-c]pyridin-4-yl]-1H-pyrazol-1-yl}acetate] was 1000 to 10000 nM; that for `Nc1ncc(-c2cnn(C3CCNCC3)c2)c2cc(-c3cccc4c3NC(=O)C4)oc12` [Example 44, 7-{7-amino-4-[1-(piperidin-4-yl)-1H-pyrazol-4-yl]furo[2,3-c]pyridine-2-yl}-1,3-dihydro-2H-indol-2-one] was 1000 to 10000 nM; that for `CC(=O)N1CCC(n2cc(-c3cnc(N)c4oc(-c5csc6cncc(Cl)c56)cc34)cn2)CC1` [Example 255] was 1000 to 10000 nM.
The value for `COc1ccc(COc2cccc(-c3cc4c(-c5cnn(C6CCN(C(C)=O)CC6)c5)cnc(N)c4o3)c2)cc1` [Example 182, 1-{4-[4-(7-amino-2-{3-[(4-methoxybenzyl)oxy]phenyl}furo[2,3-c]pyridin-4-yl)-1H-pyrazol-1-yl]piperidin-1-yl}ethanone] was 1000 to 10000 nM.
On to `CC(=O)N1CCC(n2cc(-c3cnc(N)c4oc(-c5c[nH]c6ccccc56)cc34)cn2)CC1` [Example 188, 1-(4-{4-[7-amino-2-(1H-indol-3-yl)furo[2,3-c]pyridin-4-yl]-1H-pyrazol-1-yl}piperidin-1-yl)ethanone], for which the IC50 was above 10000 nM.
Regarding `CC(=O)N1CCC(n2cc(-c3cnc(N)c4oc(-c5cnc6ccccc6c5)cc34)cn2)CC1` [Example 168, 1-(4-{4-[7-amino-2-(quinolin-3-yl)furo[2,3-c]pyridin-4-yl]-1H-pyrazol-1-yl}piperidin-1-yl)ethanone], the IC50 fell in the range of 1000 to 10000 nM.
The value for `CC(=O)N1CCC(n2cc(-c3cnc(N)c4oc(-c5cccc(OCc6ccccn6)c5)cc34)cn2)CC1` [Example 199, 1-[4-(4-{7-amino-2-[3-(Pyridin-2-ylmethoxy)phenyl]furo[2,3-c]pyridin-4-yl}-1H-pyrazol-1-yl)piperidin-1-yl]ethanone] was 1000 to 10000 nM.
In the case of `Nc1ccc(-c2nc(-c3cc4c(-c5cnn(C6CCNCC6)c5)cnc(N)c4o3)ccc2N)nc1Cl` [Example 30, 6-{7-amino-4-[1-(piperidin-4-yl)-1H-pyrazol-4-yl]furo[2,3-c]pyridine-2-yl}-6′-chloro-2,2′-bipyridine-3,5′-diamine], the IC50 lay in the range of 100 to 1000 nM.
Take `CC(=O)N1CCC(n2cc(-c3cnc(N)c4oc(-c5ccc(NS(C)(=O)=O)cc5)cc34)cn2)CC1` [Example 121, N-(4-{4-[1-(1-acetylpiperidin-4-yl)-1H-pyrazol-4-yl]-7-aminofuro[2,3-c]pyridin-2-yl}phenyl)methanesulfonamide]: the IC50 lay in the range of 1000 to 10000 nM.
For `Nc1ncc(-c2cnn(C3CCNCC3)c2)c2cc(-c3csc4ccccc34)oc12` [Example 19, 2-(1-benzothiophen-3-yl)-4-[1-(piperidin-4-yl)-1H-pyrazol-4-yl]furo[2,3-c]pyridine-7-amine], the IC50 was in the range of 1000 to 10000 nM.
The value for `CC(=O)N1CCC(n2cc(-c3cnc(N)c4oc(-c5cccc(OCc6ccccc6)c5)cc34)cn2)CC1` [Example 164, 1-[4-(4-{7-amino-2-[3-(benzyloxy)phenyl]furo[2,3-c]pyridin-4-yl}-1H-pyrazol-1-yl)piperidin-1-yl]ethanone] was above 10000 nM; that for `CC(=O)N1CCC(n2cc(-c3cnc(N)c4oc(-c5cnc6cnccn56)cc34)cn2)CC1` [Example 274, 1-(4-{4-[7-amino-2-(imidazol[1,2-a]pyrazin-3-yl)furo[2,3-c]pyridin-4-yl]-1H-pyrazol-1-yl}piperidin-1-yl)ethanone trifluoroacetic acid salt] was 1000 to 10000 nM.
The value for `COc1ccccc1NCCC(=O)N1CCC(n2cc(-c3cnc(N)c4oc(-c5cccc6cnsc56)cc34)cn2)CC1` [Example 336, 1-{4-[4-(7-amino-2-benzo[d]iso-thiazol-7-yl-furo[2,3-c]pyridin-4-yl)-pyrazol-1-yl]-piperidin-1-yl}-3-(2-methoxy-phenyl-amino)-propan-1-one] was 100 to 1000 nM; that for `Nc1ncc(-c2cnn(C3CCN(C(=O)CCC4CCCCC4)CC3)c2)c2cc(-c3csc4cnccc34)oc12` [Example 334, 1-{4-[4-(7-amino-2-thieno[2,3-c]pyridin-3-yl-furo[2,3-c]pyridin-4-yl)-pyrazol-1-yl]-piperidin-1-yl}-3-cyclohexyl-propan-1-one] was 1000 to 10000 nM.

Values taken from patent US8378104B2 (OSI Pharmaceuticals, LLC, priority 2010, dated 2013).
